Structures can show the parent of a compound that is named as a salt. Where two headings read alike, the source gives them in different places.
Legend:
[1] = molecular target: T1, COX-1 (Rattus norvegicus, UniProt Q63921); test: Colonic mucosal COX-1 activity after dietary treatment; assay type: in vivo, male F344 rats; conditions: 1800 ppm in diet; AOM-treated rats, colonic mucosa; Mean ± SEM
T1 sequence (Q63921 27-602): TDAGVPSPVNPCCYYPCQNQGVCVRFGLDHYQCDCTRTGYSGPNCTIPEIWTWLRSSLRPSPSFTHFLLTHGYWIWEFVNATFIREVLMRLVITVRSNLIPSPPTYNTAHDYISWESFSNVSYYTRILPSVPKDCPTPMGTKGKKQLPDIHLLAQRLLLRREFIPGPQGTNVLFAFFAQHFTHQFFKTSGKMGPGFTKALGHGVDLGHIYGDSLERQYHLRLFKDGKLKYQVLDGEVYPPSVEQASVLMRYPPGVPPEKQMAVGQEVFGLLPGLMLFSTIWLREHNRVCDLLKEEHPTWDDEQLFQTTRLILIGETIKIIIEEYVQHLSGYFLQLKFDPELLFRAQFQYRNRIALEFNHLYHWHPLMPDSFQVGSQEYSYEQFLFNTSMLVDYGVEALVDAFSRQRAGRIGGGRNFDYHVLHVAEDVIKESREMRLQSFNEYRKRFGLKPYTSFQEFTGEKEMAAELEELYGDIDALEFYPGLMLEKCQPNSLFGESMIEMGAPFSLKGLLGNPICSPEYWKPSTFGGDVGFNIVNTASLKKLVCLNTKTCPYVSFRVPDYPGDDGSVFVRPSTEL
Procedure: (§1) For determining COX-2 activity, proteins were preincubated with 50 μM of aspirin to block the activity of COX-1. After incubation at 37° C. for 15 min, the reaction was terminated by adding 40 μl of 0.2 M HCl. The COX-mediated metabolites of arachidonic acid were extracted with ethyl acetate (3×0.5 ml). The combined extracts were evaporated to dryness under N2, redissolved in chloroform, and subjected to thin layer chromatography on precoated TLC plastic plates (silica G 60, 20×20 cm, layer thickness 150 μm). […] The metabolites of ^14C-AA corresponding to PGE2, PGF2α, PGD2, 6-Keto PGF1α, and TXB2 were detected by their comigration (Rf-values) with authentic standards. The area of each metabolite was determined in a Bioscan System 200 image scanning counter (Bioscan Inc., Washington, D.C.) equipped with β-detector.

[2] = tested on: AOM-induced colonic ACF; test: Chemopreventive effects in rats with azoxymethane-induced aberrant crypt foci; assay type: in vivo, male F344 rats; conditions: for Foci containing 1 Crypt / Foci containing 2 Crypt / Foci containing 3 Crypt / Foci containing ≧4 Crypts / Total ACF incidence: AOM-treated male F344 rats, Mean ± SEM; for inhibition at 320 ppm: feed or water, positive control
Excerpt: In Vivo Assay of Chemopreventive Effects of Therapeutic Compounds in Rats with Azoxymethane-induced Aberrant Crypt Foci
(§2) Azoxymethane (AOM) (CAS:25843-45-2) was purchased from Ash Stevens (Detroit, Mich.). iNOS and COX-2 selective inhibitors were provided by Pharmacia, (St. Louis, […].). Sulindac, a non-selective inhibitor of COX-isoforms and a known inhibitor of colon carcinogenesis, was supplied by the Chemoprevention Branch of the National Cancer Institute (Bethesda, Md.). Weanling male F344 rats were purchased from Charles River Breeding Laboratories (Kingston, N.Y.). All ingredients of the semipurified diet were obtained from Dyets Inc., (Bethlehem, Pa.) and were stored at 4° C. until the experimental diets were prepared. The rats were held in quarantine for 1 week and had access to modified AIN-76A semipurified control diet (Reddy et al., Cancer Res. 50: 2562-2568, 1990, which is herein incorporated by reference.). They were randomly distributed into various dietary groups and were transferred to an animal holding room where they were housed, three rats to a plastic cage, under controlled conditions of a 12-h light/12-h dark cycle, 50% relative humidity and 21° C. room temperature. Experimental diets were prepared by mixing chemopreventive agents with modified AIN-76A control diet.
To quantify aberrant crypt foci, after a minimum of 24 h in buffered formalin, the colons were cut into 2-cm segments starting at the anus; for the next 5-10 min they were placed in a Petri dish containing 0.2% methylene blue in Krebs Ringer solution. They were then placed, mucosal side up, on a microscope slide and observed through a light microscope. Aberrant crypt foci were recorded according to standard procedures that are being used routinely in our laboratory (Rao et al., Carcinogenesis 21: 617-21, 2000; Rao et al., Cancer Res. 53:4182-88, 1993, which are herein incorporated by reference.). […] The parameters used to assess the aberrant crypts were their occurrence and multiplicity. Crypt multiplicity was determined as the number of crypts in each focus and categorized as containing up to 3, or 4 or more aberrant crypts/focus.

[3] = tested on: NOS; test: Colonic mucosal NOS activity after dietary treatment; assay type: in vivo, male F344 rats; conditions: AOM-treated rats, colonic mucosa, Mean ± SEM
Procedure: (§3) In Vivo Assay of Modulation of Colonic Mucosal Activities of NOS and COX isoforms by iNOS and COX-2 Inhibitors
(§4) NOS and iNOS activities were determined in colonic samples as prepared and described above. Conversion of L-arginine to L-citrulline was measured by a modification of an earlier described method (Rao et al, Carcinogenesis 21, supra; Ambs et al., Cancer Res. 58:334-41, 1998, which is herein incorporated by reference). The assay was carried out by adding 100 μg sample protein to 150 μl of assay buffer [50 mM HEPES, 1 mM DTT, 1 mM MgCl2, 5 mg/L pepstatin A, 0.1 mM PMSF, and 3 mg/L aprotinin, pH 7.4] containing 70 μM arginine, 250,000 dpm L-[^3H]-arginine, 2 mM NADPH, 5μM tetrahydro biopterin, 5 μM flavin adenine dinucleotide, and 0.5 mM CaCi2 to measure total NOS activity, or 1 mM EGTA (without calcium) to determine Ca+^2-independent iNOS activity. After 30 min at 37° C., the reaction was stopped with 100 μl of 1M trichloroacetic acid. Then the samples were adjusted to pH 4.6 by adding 500 μl of 20 mM HEPES and loaded on to Dowex AG 50W-X8 resin columns. L-[^3H]-citrulline was eluted and separated on TLC. Radioactivity was counted by a BioScan Radiomatic detector. Results are expressed as pmol L-[^3H]-citrulline released/mg protein/min.

[4] = molecular target: T2, COX-2 (Rattus norvegicus, UniProt P35355); test: Colonic mucosal COX-2 activity after dietary treatment; assay type: in vivo, male F344 rats; conditions: 1800 ppm in diet; AOM-treated rats, colonic mucosa; Mean ± SEM
T2 sequence (P35355 18-604): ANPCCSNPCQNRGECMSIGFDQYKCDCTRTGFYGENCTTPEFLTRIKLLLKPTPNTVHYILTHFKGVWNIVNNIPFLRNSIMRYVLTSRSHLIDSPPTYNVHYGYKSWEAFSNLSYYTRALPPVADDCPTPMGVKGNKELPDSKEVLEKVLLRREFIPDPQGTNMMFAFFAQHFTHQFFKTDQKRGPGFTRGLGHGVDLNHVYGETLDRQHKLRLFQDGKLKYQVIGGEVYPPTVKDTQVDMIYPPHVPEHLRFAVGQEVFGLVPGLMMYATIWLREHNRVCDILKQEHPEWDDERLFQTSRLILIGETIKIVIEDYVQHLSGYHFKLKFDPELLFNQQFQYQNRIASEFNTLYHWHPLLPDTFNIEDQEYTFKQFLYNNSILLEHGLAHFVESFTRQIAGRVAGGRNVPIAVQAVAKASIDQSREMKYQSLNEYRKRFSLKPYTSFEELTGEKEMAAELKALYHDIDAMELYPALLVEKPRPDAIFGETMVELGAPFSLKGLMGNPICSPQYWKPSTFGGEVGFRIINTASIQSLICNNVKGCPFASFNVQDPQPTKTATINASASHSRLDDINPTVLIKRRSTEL
Procedure: as §1

[5] = molecular target: iNOS (Rattus norvegicus, UniProt Q06518); test: Colonic mucosal iNOS activity after dietary treatment; assay type: in vivo, male F344 rats
Procedure: as §3, §4

[6] = Body weights and toxicity on experimental diets; assay type: in vivo, male F344 rats
Excerpt: as §2

[7] = molecular target: i-NOS (Homo sapiens, UniProt P35228); test: i-NOS inhibition, comparison with NIL amides; assay type: biochemical; conditions: compared with NIL amide or NIL dimethylamide
[8] = tested on: intestinal tumorigenesis; conditions: APC^Δ716 mice; cited from earlier work

Sequence of i-NOS (P35228 whole entry): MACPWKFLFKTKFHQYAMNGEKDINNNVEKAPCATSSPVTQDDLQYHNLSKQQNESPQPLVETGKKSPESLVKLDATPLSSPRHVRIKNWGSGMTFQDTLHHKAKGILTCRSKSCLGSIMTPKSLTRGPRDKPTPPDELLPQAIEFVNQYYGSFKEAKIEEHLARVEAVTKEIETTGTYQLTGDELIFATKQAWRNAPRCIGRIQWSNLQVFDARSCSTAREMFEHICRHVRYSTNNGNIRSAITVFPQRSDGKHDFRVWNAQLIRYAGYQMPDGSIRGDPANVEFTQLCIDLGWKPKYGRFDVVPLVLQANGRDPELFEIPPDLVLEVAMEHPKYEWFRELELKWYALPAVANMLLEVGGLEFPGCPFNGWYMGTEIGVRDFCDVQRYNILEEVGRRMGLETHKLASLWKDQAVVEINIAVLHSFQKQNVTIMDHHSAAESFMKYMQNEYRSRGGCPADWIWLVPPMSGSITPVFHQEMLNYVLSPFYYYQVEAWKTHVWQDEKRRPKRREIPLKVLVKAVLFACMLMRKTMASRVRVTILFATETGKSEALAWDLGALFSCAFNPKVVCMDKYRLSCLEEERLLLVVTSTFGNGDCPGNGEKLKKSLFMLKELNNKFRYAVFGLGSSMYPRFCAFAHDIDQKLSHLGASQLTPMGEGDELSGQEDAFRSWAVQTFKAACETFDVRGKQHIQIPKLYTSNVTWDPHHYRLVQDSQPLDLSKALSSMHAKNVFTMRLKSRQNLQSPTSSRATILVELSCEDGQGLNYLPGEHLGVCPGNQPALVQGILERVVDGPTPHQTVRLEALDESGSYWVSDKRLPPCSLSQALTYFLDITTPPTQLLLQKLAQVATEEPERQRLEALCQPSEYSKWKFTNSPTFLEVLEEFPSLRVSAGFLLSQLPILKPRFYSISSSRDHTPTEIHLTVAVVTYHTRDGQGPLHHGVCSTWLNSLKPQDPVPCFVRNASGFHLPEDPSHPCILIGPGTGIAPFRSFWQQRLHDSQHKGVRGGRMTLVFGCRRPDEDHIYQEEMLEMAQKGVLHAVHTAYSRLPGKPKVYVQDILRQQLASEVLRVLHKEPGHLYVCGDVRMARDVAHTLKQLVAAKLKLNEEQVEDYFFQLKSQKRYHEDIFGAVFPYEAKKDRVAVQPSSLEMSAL

In the case of N=C(N)NN [aminoguanidine], the “COX-Activity, COX-1” value [1] is reported as 10.8 ± 1.9 pmoles [^14C]-AA metabolized/m, the “Foci containing 1 Crypt” value ([2]; 1800 ppm in diet) is reported as 28.0 ± 2.4 and the “Foci containing 2 Crypt” value ([2]; 1800 ppm in diet) is reported as 29.3 ± 1.3. The “Foci containing 3 Crypt” value ([2]; 1800 ppm in diet) was 17.8 ± 1.0, the “Foci containing ≧4 Crypts” value ([2]; 1800 ppm in diet) was 14.6 ± 1.8 and the “Total ACF incidence” value ([2]; 1800 ppm in diet) was 89.8 ± 4.5. The “effect on AOM-induced total colonic ACF and multicrypt clusters of 4 or more crypts” value ([2]; 1,800 ppm, compared to control diet) was “suppressed”, the “NOS Activity, NOS” value ([3]; 1800 ppm in diet) was 7.9 ± 1.7 pmoles [^3H]-citrulline/mg pro and the “COX-Activity, COX-2” value [4] was 1.2 ± 0.2 pmoles [^14C]-AA metabolized/m. For the same compound, the “suppression of AOM-induced colonic mucosal iNOS activity” value ([5]; 1800 ppm) was 50% and the “NOS Activity, iNOS” value ([5]; 1800 ppm in diet, AOM-treated rats, colonic mucosa, Mean ± SEM) was 1.1 ± 0.1 pmoles [^3H]-citrulline/mg pro.
With CC1=C(CC(=O)O)c2cc(F)ccc2/C1=C\c1ccc([S+](C)[O-])cc1 (stereo not drawn) [Sulindac] the “Foci containing 1 Crypt” value ([2]; 320 ppm in diet) was 23.3 ± 1.8, the “Foci containing 2 Crypt” value ([2]; 320 ppm in diet) was 28.0 ± 1.5 and the “Foci containing 3 Crypt” value ([2]; 320 ppm in diet) was 17.3 ± 1.7. The “Foci containing ≧4 Crypts” value ([2]; 320 ppm in diet) was 16.5 ± 0.9, the “Total ACF incidence” value ([2]; 320 ppm in diet) was 84.9 ± 4.1 and the inhibition at 320 ppm ([2]; Rattus norvegicus, 320 ppm in diet, read-out: inhibition of multicrypt clusters containing 4 or more aberrant crypts/focus) was 50%. For the same compound, the inhibition at 320 ppm ([2]; Rattus norvegicus, 320 ppm in diet, read-out: inhibition of total ACF/colon) was 40%, the body weights ([6]; rats treated with vehicle or AOM, control vs experimental diets, throughout the study period) was “comparable” and the “toxicity or gross changes in the liver, kidney, intestine and lungs” value ([6]; vehicle-treated rats fed the experimental diets) was “did not produce any toxicity or any gross changes”.
In the case of CC(=N)NCCCC[C@H](N)C(=O)Nc1nnn[nH]1 [Example NN, 2S-amino-6-[(1-iminoethyl)amino]-N-(1H-tetrazol-5-yl)hexanamide, hydrate, dihydrochloride], the i-NOS inhibitor potency [7] is reported as “more potent”.
CC(=NO)NC/C(F)=C\CC[C@H](N)C(=O)O [Example G, (2S,5E)-2-amino-6-fluoro-7-[(1-hydroximinoethyl)amino]-5-heptenoic acid] gave a melting point of 198 to 200 °C.
In the case of Cc1ccc(-c2cc(C(F)(F)F)nn2-c2ccc(S(N)(=O)=O)cc2)cc1 [Celecoxib, celecoxib], the “Foci containing 1 Crypt” value ([2]; 500 ppm in diet) is reported as 26.8 ± 2.1, the “Foci containing 2 Crypt” value ([2]; 500 ppm in diet) is reported as 27.3 ± 2.0 and the “Foci containing 3 Crypt” value ([2]; 500 ppm in diet) is reported as 23.7 ± 2.3. The “Foci containing ≧4 Crypts” value ([2]; 500 ppm in diet) was 23.3 ± 2.7, the “Total ACF incidence” value ([2]; 500 ppm in diet) was 102 ± 7.5 and the inhibition at 500 ppm ([2]; Rattus norvegicus, 500 ppm, read-out: inhibition of total ACF) was 5 to 20%. For the same compound, the “NOS Activity, NOS” value ([3]; 500 ppm in diet) was 11.3 ± 2.1 pmoles [^3H]-citrulline/mg pro.
For CS(=O)(=O)c1ccc(C2=C(c3ccc(F)c(F)c3)C(=O)OC2)cc1 [MF-Tricyclic], the intestinal tumorigenesis [8] is listed as “blocks”.
